# Test results published in PMC3430861, “The pharmacological profile of ELIC, a prokaryotic GABA-gated receptor” (Neuropharmacology, 2012).
# Where two headings read alike, the source gives them in different places.
# Legend:
# [1] = target: T1, ELIC (Dickeya chrysanthemi, UniProt P0C7B7, INS163G); assay: cell-based; type: cell-based, Erwinia chrysanthemi
# T1 construct: expressed in transfected cells; host or cells: Xenopus laevis oocytes injected with cRNA
# Protocol: Xenopus laevis oocyte-positive females were purchased from NASCO (Fort Atkinson, Wisconsin, USA) and maintained according to standard methods.
# (§1) The ELIC sequence (Genbank accession number POC7B7) was purchased from Genscript as a synthetic gene with optimized codon usage for expression in Escherichia coli. […] Stage V and VI oocytes were injected with 20 ng cRNA, and currents recorded 1–3 days post-injection.
# [2] = target: T2, ELIC (Dickeya chrysanthemi, UniProt P0C7B7); assay: cell-based; type: cell-based, Erwinia chrysanthemi
# T2 sequence (P0C7B7 8-321): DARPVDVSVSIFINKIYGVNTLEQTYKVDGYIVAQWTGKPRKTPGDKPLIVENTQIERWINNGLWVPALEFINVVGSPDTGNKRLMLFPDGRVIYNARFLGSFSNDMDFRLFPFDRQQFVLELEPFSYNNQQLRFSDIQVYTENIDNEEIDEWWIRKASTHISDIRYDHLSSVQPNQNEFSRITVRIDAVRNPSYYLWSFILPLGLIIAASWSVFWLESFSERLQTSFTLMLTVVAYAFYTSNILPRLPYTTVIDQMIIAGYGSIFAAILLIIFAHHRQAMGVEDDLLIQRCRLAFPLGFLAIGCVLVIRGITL
# Protocol: Xenopus laevis oocyte-positive females were purchased from NASCO (Fort Atkinson, Wisconsin, USA) and maintained according to standard methods. Harvested stage V–VI Xenopus oocytes were washed in four changes of ND96 (96 mM NaCl, 2 mM KCl, 1 mM MgCl2, 5 mM HEPES, pH 7.5), de-folliculated in 1.5 mg ml^−1 collagenase Type 1A for approximately 2 h, washed again in four changes of ND96 and stored in ND96 containing 2.5 mM sodium pyruvate, […], 0.7 mM theophylline.
# as §1
# [3] = target: T2, ELIC; assay: Inhibition of cysteamine-induced ELIC responses; type: cell-based, Erwinia chrysanthemi; settings: data not shown
# [4] = test system: GLIC; parameters: method as in Alqazzaz et al., 2011; settings: ref Alqazzaz et al., 2011, cited from earlier work; for inhibition of GLIC (yes/no): comparison ELIC vs GLIC
# [5] = target: RDL, a GABA-activated insect receptor; parameters: method as in McGonigle and Lummis, 2010; settings: ref McGonigle and Lummis, 2010, cited from earlier work
# [6] = 10 mM, read-out: pEC50 (EC50): agonist effect at the concentration shown (converted)
# [7] = Hill coefficient of inhibition curve
# [8] = IC50, wild type ELIC, at the GABA EC50 (1.6 mM)
# [9] = pIC50 (Mean ± SEM), wild type ELIC, at the GABA EC50 (1.6 mM)
# [10] = 1 mM, read-out: pEC50 (EC50): agonist effect at the concentration shown (converted)
molecule,measurement,setting,value
N[C@@H](Cc1ccc(O)cc1)C(=O)O [Tyrosine],effect on ELIC (agonist test),[1]; 1 mM,no effect
same,effect when co-applied in the presence of GABA,[2],no effect
N[C@@H](CS)C(=O)O [Cysteine],effect on ELIC (agonist test),[1]; 1 mM,no effect
CC[C@H](C)[C@H](N)C(=O)O [Isoleucine],effect on ELIC (agonist test),[1]; 1 mM,no effect
N[C@@H](CCC(=O)O)C(=O)O [L-glutamate],effect on ELIC (agonist test),[1]; 1 mM,no effect
same,effect on ELIC (agonist test),[1]; 10 mM,did not activate ELIC
C[C@@H](O)[C@H](N)C(=O)O [Threonine],effect on ELIC (agonist test),[1]; 1 mM,no effect
O=C(O)Cc1c[nH]c2ccccc12 [3-indole acetic acid],effect on ELIC (agonist test),[1]; 10 mM,no effect
same,EC50,[1]; [6],> 10000 µM
O=[N+]([O-])NC1=NCCN1Cc1ccc(Cl)nc1 [Imidaclopride],inhibition of ELIC (yes/no),[2],inhibiting neither
C=C(C)[C@@H]1[C@H]2OC(=O)[C@@H]1[C@]1(O)C[C@H]3O[C@]34C(=O)O[C@H]2[C@]14C [Picrotoxinin],nH,[2]; [7],1.2 ± 0.6
same,IC50,[2]; [8],96 µM
same,inhibition of ELIC (yes/no),[2]; comparison ELIC vs GLIC,inhibiting both receptors
same,IC50,[2]; [9],87.1 µM
same,inhibition of cysteamine-induced responses compared to inhibition of GABA-induced responses,[3],no significant differences
same,inhibition of GLIC (yes/no),[4],inhibiting both receptors
NCCCCC(=O)O [5-aminovaleric acid],concentration required to activate ELIC,[1],> 10 mM
same,EC50,[5]; RDL,1100 µM
same,Rmax,[5]; RDL,0.85
α-amino hydroxbutyric acid,effect on ELIC (agonist test),[1]; 10 mM,no effect
same,EC50,[1]; [6],> 10000 µM
O=C([O-])CCC(=O)[O-].[Na+].[Na+] [sodium succinate],effect on ELIC (agonist test),[1]; 10 mM,did not activate ELIC
same,EC50,[1]; [6],> 10000 µM
Cc1cccc(C)c1N=C([O-])C[N+](C)(C)C.Cl [QX-222],inhibition of ELIC (yes/no),[2],inhibiting neither
same,pIC50: no inhibition,[2],NI (key: NI: no inhibition at 10 mM; NI*: no inhibition at 100 μM)
NCCCP(=O)(O)O [3-aminophosphonic acid],effect on ELIC (agonist test),[1]; 100 mM,no effect
same,EC50,"[1]; 100 mM, read-out: pEC50 (EC50): agonist effect at the concentration shown (converted)",> 10000 µM
CCC(N)C(=O)O (stereo not drawn) [α-aminobutyrate],effect on ELIC (agonist test),[1]; 10 mM,did not activate ELIC
same,EC50,[1]; [6],> 10000 µM
NCc1cc(=O)[nH]o1 [muscimol],effect on ELIC (agonist test),[1]; 30 μM,no effect
O=C(O)CCCO [γ-hydroxybutyric acid],concentration required to activate ELIC,[1],> 10 mM
same,% of Rmax at 100 mM,"[1]; 100 mM, Rmax = maximal current relative to 10mM GABA",8.2 ± 3% of Rmax at 100 mM
same,effect on RDL,[5],no effect
N[C@@H](CO)C(=O)O [Serine],effect on ELIC (agonist test),[1]; 1 mM,no effect
NCCC(=O)O [β-alanine],effect on ELIC (agonist test),[1]; 10 mM,no effect
CC(=O)OCC[N+](C)(C)C [ACh],EC50,[1]; [10],> 10000 µM
same,effect on ELIC (agonist test),[1]; 10 mM,no ELIC responses
"COc1ccc(-c2ccc(=N)n(CCCC(=O)O)n2)cc1 [Gabazine (SR-95531), Gabazine]",effect when co-applied in the presence of GABA,[2],no effect
NCCCC(=O)O [GABA],Hill Slope,"[1]; wild type ELIC, agonist concentration-response",2.1 ± 0.6
same,pEC50,"[1]; wild type ELIC, oocytes clamped at −60 mV",2.78 ± 0.04
same,EC50,"[1]; wild type ELIC, oocytes clamped at −60 mV, read-out: EC50 (converted)",1600 µM
C[C@@H]1C[C@H]2[C@@H]3CCC4=CC(=O)C=C[C@]4(C)[C@@]3(F)[C@@H](O)C[C@]2(C)[C@@]1(O)C(=O)CO [Dexamethasone],inhibition of ELIC (yes/no),[2]; comparison ELIC vs GLIC,inhibiting neither
NCCCC[C@H](N)C(=O)O [Lysine],effect on ELIC (agonist test),[1]; 1 mM,no effect
O=C(O)[C@@H]1CCCN1 [Proline],effect on ELIC (agonist test),[1]; 1 mM,no effect
same,effect when co-applied in the presence of GABA,[2],no effect
CN1CCc2cc3c(cc2[C@H]1[C@@H]1OC(=O)c2c1ccc1c2OCO1)OCO3 [Bicuculline],effect when co-applied in the presence of GABA,[2]; 100 μM,no effect
same,pIC50: no inhibition,"[2]; wild type ELIC, at the GABA EC50 (1.6 mM)",NI* (no inhibition at 100 μM)
ClC1=C(Cl)[C@]2(Cl)[C@@H]3[C@@H]4C[C@@H]([C@H]5O[C@@H]45)[C@@H]3[C@@]1(Cl)C2(Cl)Cl [Dieldrin],nH,[2],1.1 ± 0.1
same,IC50,[2]; IC50,66 µM
same,IC50,[2]; pIC50 (Mean ± SEM),66.1 µM
N=C(N)NCCC[C@H](N)C(=O)O [Arginine],effect on ELIC (agonist test),[1]; 1 mM,no effect
NC(=O)CC[C@H](N)C(=O)O [Glutamine],effect on ELIC (agonist test),[1]; 1 mM,no effect
same,effect when co-applied in the presence of GABA,[2],no effect
N[C@@H](CC(=O)O)C(=O)O [Aspartate],effect on ELIC (agonist test),[1]; 1 mM,no effect
CC(=O)O[C@H]1C[C@@H]2CC[C@@H]3[C@H](CC[C@@]4(C)[C@H]3C[C@H]([N+]3(C)CCCCC3)[C@@H]4OC(C)=O)[C@@]2(C)C[C@@H]1[N+]1(C)CCCCC1 [Pancuronium],pIC50: no inhibition,[2],NI (key: NI: no inhibition at 10 mM; NI*: no inhibition at 100 μM)
N#Cc1nn(-c2c(Cl)cc(C(F)(F)F)cc2Cl)c(N)c1[S+]([O-])C(F)(F)F (stereo not drawn) [Fipronil],inhibition of ELIC (yes/no),[2],inhibiting both receptors
same,nH,[2],1.8 ± 0.4
same,IC50,[2]; IC50,350 µM
same,IC50,[2]; pIC50 (Mean ± SEM),347 ± 4.01 µM
same,inhibition of GLIC (yes/no),[4],inhibiting both receptors
O=C1CCCO1 [γ-butyrolactone],effect on ELIC (agonist test),[1]; 10 mM,did not activate ELIC
C[N+](C)(C)C [tetramethylammonium],IC50,[2]; read-out: IC50,~20000 µM
O=C(O)CCC(=O)O [succinic acid],effect on ELIC (agonist test),[1]; 10 mM,did not activate ELIC
CC(C)(C)[C@]1(O)CC2OC(=O)CC23C(=O)OC2OC(=O)[C@H](O)C231 (stereo partly drawn) [Bilobalide],nH,[2]; [7],1.3 ± 0.2
same,IC50,[2]; [8],330 µM
same,IC50,[2]; [9],331 µM
CC(C)[C@H](N)C(=O)O [Valine],effect on ELIC (agonist test),[1]; 1 mM,no effect
N[C@@H](Cc1c[nH]c2ccccc12)C(=O)O [Tryptophan],effect on ELIC (agonist test),[1]; 1 mM,no effect
NC(=O)C[C@H](N)C(=O)O [Asparagine],effect on ELIC (agonist test),[1]; 1 mM,no effect
CC(C)C[C@H](N)C(=O)O [Leucine],effect on ELIC (agonist test),[1]; 1 mM,no effect
NCC(=O)O [Glycine],EC50,[1]; [10],> 10000 µM
same,effect on ELIC (agonist test),[1]; 10 mM,no ELIC responses
same,EC50,[1]; [6],> 10000 µM
N[C@@H](Cc1c[nH]cn1)C(=O)O [Histidine],effect on ELIC (agonist test),[1]; 1 mM,no effect
same,effect when co-applied in the presence of GABA,[2],no effect
O=S1OC[C@@H]2[C@H](CO1)[C@@]1(Cl)C(Cl)=C(Cl)[C@]2(Cl)C1(Cl)Cl (stereo partly drawn) [α-endosulfan],nH,[2],0.7 ± 0.2
same,IC50,[2]; IC50,17 µM
same,IC50,[2]; pIC50 (Mean ± SEM),17 µM
same,IC50,[4]; GLIC,17 µM
NCCc1c[nH]c2ccc(O)cc12 [5-HT],EC50,[1]; [10],> 10000 µM
same,effect on ELIC (agonist test),[1]; 10 mM,no ELIC responses
CC[N+](CC)(CC)CC [tetraethylammonium],IC50,[2]; read-out: IC50,~20000 µM
NC12CC3CC(CC(C3)C1)C2 [Amantadine],inhibition of ELIC (yes/no),[2],inhibiting both receptors
same,nH,[2]; [7],2.5 ± 0.4
same,IC50,[2]; IC50,370 µM
same,IC50,[2]; pIC50 (Mean ± SEM),372 µM
same,inhibition of GLIC (yes/no),[4],inhibiting both receptors
O=C(O)CCC(=O)C(=O)O [α-ketoglutarate],effect on ELIC (agonist test),[1]; 10 mM,did not activate ELIC
same,EC50,[1]; [6],> 10000 µM
CSCC[C@H](N)C(=O)O [Methionine],effect on ELIC (agonist test),[1]; 1 mM,no effect
Oc1ccc2[nH]ccc2c1 [5-hydroxyindole],inhibition of ELIC (yes/no),[2],inhibiting neither
C[C@H](N)C(=O)O [Alanine],effect on ELIC (agonist test),[1]; 1 mM,no effect
Ivermectin,inhibition of ELIC (yes/no),[2],inhibiting neither
same,pIC50: no inhibition,[2],NI (key: NI: no inhibition at 10 mM; NI*: no inhibition at 100 μM)
CC(=O)[C@H]1CC[C@H]2[C@@H]3CCC4=CC(=O)CC[C@]4(C)[C@H]3CC[C@]12C [Progesterone],nH,[2],1.8 ± 0.58
same,IC50,[2]; IC50,150 µM
same,IC50,[2]; pIC50 (Mean ± SEM),151 µM
CN(C)CCCN1c2ccccc2Sc2ccc(Cl)cc21 [Chlorpromazine],inhibition of ELIC (yes/no),[2],inhibiting both receptors
same,nH,[2],1.2 ± 0.4
same,IC50,[2]; IC50,230 µM
same,IC50,[2]; pIC50 (Mean ± SEM),229 µM
same,inhibition of GLIC (yes/no),[4],inhibiting both receptors
CCCC(C(=O)OCCN(CC)CC)(c1ccccc1)c1ccccc1 [Proadifen],nH,[2],2.9 ± 0.6
same,pIC50 (Mean ± SEM),[2],5.09 ± 0.04
same,IC50,[2]; IC50,< 20 µM
same,IC50,[2]; read-out: IC50,8.1 µM
N[C@@H](Cc1ccccc1)C(=O)O [Phenylalanine],effect on ELIC (agonist test),[1]; 1 mM,no effect
O=C(O)[C@@H]1CCC(O)=N1 [pyroglutamate],effect on ELIC (agonist test),[1]; 10 mM,did not activate ELIC
